ChEMBL document CHEMBL4396916, “Novel potent substituted 4-amino-2-thiopyrimidines as dual VEGFR-2 and BRAF kinase inhibitors” (Eur J Med Chem, 2019)
pIC50: −log10 of the molar value.

Tests used:
[1] = molecular target: Vascular endothelial growth factor receptor 2 (Homo sapiens, UniProt P35968); experiment: Inhibition of human N-terminal GST tagged VEGFR-2 expressed in baculovirus infected Sf9 cells using poly (Glu,Tyr) 4:1 as substrate in presence of ATP by Kinase-Glo luminescence assay
[2] = tested on: MCF7; experiment: Cytotoxicity against human MCF7 cells expressing VEGFR2 and wild type BRAF measured after 48 hrs by sulforhodamine B assay; type: functional, cell-based; details: MCF7, 48 h
[3] = tested on: T47D; experiment: Cytotoxicity against human T47D cells expressing wild type BRAF measured after 48 hrs by sulforhodamine B assay; type: functional, cell-based
[4] = tested on: MCF7; experiment: Inhibition of VEGFR2 level in human MCF7 cells at 10 uM measured after 48 hrs by ELISA relative to control; type: functional; details: MCF7, 48 h
[5] = tested on: MDA-MB-231; experiment: Growth inhibition of human MDA-MB-231 cells at 10 uM incubated for 48 hrs by sulforhodamine B assay relative to control; type: functional; details: MDA-MB-231, 48 h, read-out: GI
[6] = tested on: A498; experiment: Growth inhibition of human A498 cells at 10 uM incubated for 48 hrs by sulforhodamine B assay relative to control; type: functional; details: A498, 48 h, read-out: GI
[7] = tested on: UACC-62; experiment: Growth inhibition of human UACC62 cells at 10 uM incubated for 48 hrs by sulforhodamine B assay relative to control; type: functional; details: UACC-62, 48 h, read-out: GI
[8] = tested on: A549; experiment: Growth inhibition of human A549/ATCC cells at 10 uM incubated for 48 hrs by sulforhodamine B assay relative to control; type: functional; details: A549, 48 h, read-out: GI
[9] = tested on: IGROV-1; experiment: Growth inhibition of human IGROV1 cells at 10 uM incubated for 48 hrs by sulforhodamine B assay relative to control; type: functional; details: IGROV-1, 48 h, read-out: GI
[10] = tested on: Malme-3M; experiment: Growth inhibition of human MALME-3M cells at 10 uM incubated for 48 hrs by sulforhodamine B assay relative to control; type: functional; details: read-out: GI
[11] = tested on: SNB-75; experiment: Growth inhibition of human SNB75 cells at 10 uM incubated for 48 hrs by sulforhodamine B assay relative to control; type: functional; details: SNB-75, 48 h, read-out: GI
[12] = tested on: EKVX; experiment: Growth inhibition of human EKVX cells at 10 uM incubated for 48 hrs by sulforhodamine B assay relative to control; type: functional; details: read-out: GI
[13] = tested on: HOP-92; experiment: Growth inhibition of human HOP92 cells at 10 uM incubated for 48 hrs by sulforhodamine B assay relative to control; type: functional; details: HOP-92, 48 h, read-out: GI
[14] = tested on: NCI-H226; experiment: Growth inhibition of human NCI-H226 cells at 10 uM incubated for 48 hrs by sulforhodamine B assay relative to control; type: functional; details: NCI-H226, 48 h, read-out: GI
[15] = tested on: CAKI-1; experiment: Growth inhibition of human Caki1 cells at 10 uM incubated for 48 hrs by sulforhodamine B assay relative to control; type: functional; details: CAKI-1, 48 h, read-out: GI
[16] = tested on: PC-3; experiment: Growth inhibition of human PC3 cells at 10 uM incubated for 48 hrs by sulforhodamine B assay relative to control; type: functional; details: PC-3, 48 h, read-out: GI
[17] = tested on: UO-31; experiment: Growth inhibition of human UO31 cells at 10 uM incubated for 48 hrs by sulforhodamine B assay relative to control; type: functional; details: UO-31, 48 h, read-out: GI
[18] = tested on: NCI-H522; experiment: Growth inhibition of human NCI-H522 cells at 10 uM incubated for 48 hrs by sulforhodamine B assay relative to control; type: functional; details: NCI-H522, 48 h, read-out: GI
[19] = tested on: Hs-578T; experiment: Growth inhibition of human Hs578T cells at 10 uM incubated for 48 hrs by sulforhodamine B assay relative to control; type: functional; details: read-out: GI
[20] = molecular target: Serine/threonine-protein kinase B-raf (Homo sapiens, UniProt P15056); experiment: Inhibition of human wild type BRAF by Kinase-Glo luminescence assay
[21] = tested on: SR; experiment: Growth inhibition of human SR cells at 10 uM incubated for 48 hrs by sulforhodamine B assay relative to control; type: functional; details: read-out: GI
[22] = tested on: MOLT-4; experiment: Growth inhibition of human MOLT4 cells at 10 uM incubated for 48 hrs by sulforhodamine B assay relative to control; type: functional; details: MOLT-4, 48 h, read-out: GI
[23] = tested on: CCRF-CEM; experiment: Growth inhibition of human CCRF-CEM cells at 10 uM incubated for 48 hrs by sulforhodamine B assay relative to control; type: functional; details: read-out: GI
[24] = tested on: NCI-H23; experiment: Growth inhibition of human NCI-H23 cells at 10 uM incubated for 48 hrs by sulforhodamine B assay relative to control; type: functional; details: NCI-H23, 48 h, read-out: GI
[25] = tested on: LOX IMVI; experiment: Growth inhibition of human LOXIMVI cells at 10 uM incubated for 48 hrs by sulforhodamine B assay relative to control; type: functional; details: read-out: GI
[26] = tested on: K562; experiment: Growth inhibition of human K562 cells at 10 uM incubated for 48 hrs by sulforhodamine B assay relative to control; type: functional; details: K562, 48 h, read-out: GI
[27] = tested on: SK-MEL-5; experiment: Growth inhibition of human SK-MEL-5 cells at 10 uM incubated for 48 hrs by sulforhodamine B assay relative to control; type: functional; details: SK-MEL-5, 48 h, read-out: GI
[28] = tested on: MDA-MB-468; experiment: Growth inhibition of human MDA-MB-468 cells at 10 uM incubated for 48 hrs by sulforhodamine B assay relative to control; type: functional; details: MDA-MB-468, 48 h, read-out: GI
[29] = tested on: NCI/ADR-RES; experiment: Growth inhibition of human NCI/ADR-RES cells at 10 uM incubated for 48 hrs by sulforhodamine B assay relative to control; type: functional; details: read-out: GI
[30] = tested on: T47D; experiment: Growth inhibition of human T47D cells at 10 uM incubated for 48 hrs by sulforhodamine B assay relative to control; type: functional; details: read-out: GI
[31] = tested on: ACHN; experiment: Growth inhibition of human ACHN cells at 10 uM incubated for 48 hrs by sulforhodamine B assay relative to control; type: functional; details: read-out: GI
[32] = tested on: SN12C; experiment: Growth inhibition of human SN12C cells at 10 uM incubated for 48 hrs by sulforhodamine B assay relative to control; type: functional; details: read-out: GI
[33] = tested on: BT-549; experiment: Growth inhibition of human BT549 cells at 10 uM incubated for 48 hrs by sulforhodamine B assay relative to control; type: functional; details: BT-549, 48 h, read-out: GI
[34] = tested on: MCF7; experiment: Growth inhibition of human MCF7 cells at 10 uM incubated for 48 hrs by sulforhodamine B assay relative to control; type: functional; details: MCF7, 48 h, read-out: GI
[35] = tested on: OVCAR-8; experiment: Growth inhibition of human OVCAR8 cells at 10 uM incubated for 48 hrs by sulforhodamine B assay relative to control; type: functional; details: OVCAR-8, 48 h, read-out: GI
[36] = tested on: RPMI-8226; experiment: Growth inhibition of human RPMI8226 cells at 10 uM incubated for 48 hrs by sulforhodamine B assay relative to control; type: functional; details: RPMI-8226, 48 h, read-out: GI
[37] = tested on: HCT-116; experiment: Growth inhibition of human HCT116 cells at 10 uM incubated for 48 hrs by sulforhodamine B assay relative to control; type: functional; details: HCT-116, 48 h, read-out: GI

Sequence of Serine/threonine-protein kinase B-raf (P15056 whole entry): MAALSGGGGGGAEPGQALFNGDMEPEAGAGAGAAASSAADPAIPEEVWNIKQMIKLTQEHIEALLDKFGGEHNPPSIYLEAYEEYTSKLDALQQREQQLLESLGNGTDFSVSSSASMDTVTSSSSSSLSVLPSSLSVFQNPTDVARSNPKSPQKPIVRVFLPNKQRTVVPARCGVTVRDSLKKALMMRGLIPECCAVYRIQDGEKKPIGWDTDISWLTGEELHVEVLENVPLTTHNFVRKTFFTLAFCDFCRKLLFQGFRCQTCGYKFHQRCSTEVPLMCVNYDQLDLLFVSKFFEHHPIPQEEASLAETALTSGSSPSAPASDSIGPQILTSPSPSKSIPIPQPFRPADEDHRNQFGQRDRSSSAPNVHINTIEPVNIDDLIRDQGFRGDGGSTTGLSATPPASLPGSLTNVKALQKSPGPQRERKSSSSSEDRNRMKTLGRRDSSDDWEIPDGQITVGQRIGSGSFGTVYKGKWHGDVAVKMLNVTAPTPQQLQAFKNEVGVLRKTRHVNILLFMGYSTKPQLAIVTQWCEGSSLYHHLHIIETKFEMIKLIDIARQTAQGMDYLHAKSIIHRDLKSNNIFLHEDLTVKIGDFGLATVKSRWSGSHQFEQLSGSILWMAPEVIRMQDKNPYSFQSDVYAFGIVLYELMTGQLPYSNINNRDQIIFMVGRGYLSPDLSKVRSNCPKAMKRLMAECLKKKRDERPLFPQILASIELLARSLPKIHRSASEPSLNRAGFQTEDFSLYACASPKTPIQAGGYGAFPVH
Sequence of Vascular endothelial growth factor receptor 2 (P35968 whole entry): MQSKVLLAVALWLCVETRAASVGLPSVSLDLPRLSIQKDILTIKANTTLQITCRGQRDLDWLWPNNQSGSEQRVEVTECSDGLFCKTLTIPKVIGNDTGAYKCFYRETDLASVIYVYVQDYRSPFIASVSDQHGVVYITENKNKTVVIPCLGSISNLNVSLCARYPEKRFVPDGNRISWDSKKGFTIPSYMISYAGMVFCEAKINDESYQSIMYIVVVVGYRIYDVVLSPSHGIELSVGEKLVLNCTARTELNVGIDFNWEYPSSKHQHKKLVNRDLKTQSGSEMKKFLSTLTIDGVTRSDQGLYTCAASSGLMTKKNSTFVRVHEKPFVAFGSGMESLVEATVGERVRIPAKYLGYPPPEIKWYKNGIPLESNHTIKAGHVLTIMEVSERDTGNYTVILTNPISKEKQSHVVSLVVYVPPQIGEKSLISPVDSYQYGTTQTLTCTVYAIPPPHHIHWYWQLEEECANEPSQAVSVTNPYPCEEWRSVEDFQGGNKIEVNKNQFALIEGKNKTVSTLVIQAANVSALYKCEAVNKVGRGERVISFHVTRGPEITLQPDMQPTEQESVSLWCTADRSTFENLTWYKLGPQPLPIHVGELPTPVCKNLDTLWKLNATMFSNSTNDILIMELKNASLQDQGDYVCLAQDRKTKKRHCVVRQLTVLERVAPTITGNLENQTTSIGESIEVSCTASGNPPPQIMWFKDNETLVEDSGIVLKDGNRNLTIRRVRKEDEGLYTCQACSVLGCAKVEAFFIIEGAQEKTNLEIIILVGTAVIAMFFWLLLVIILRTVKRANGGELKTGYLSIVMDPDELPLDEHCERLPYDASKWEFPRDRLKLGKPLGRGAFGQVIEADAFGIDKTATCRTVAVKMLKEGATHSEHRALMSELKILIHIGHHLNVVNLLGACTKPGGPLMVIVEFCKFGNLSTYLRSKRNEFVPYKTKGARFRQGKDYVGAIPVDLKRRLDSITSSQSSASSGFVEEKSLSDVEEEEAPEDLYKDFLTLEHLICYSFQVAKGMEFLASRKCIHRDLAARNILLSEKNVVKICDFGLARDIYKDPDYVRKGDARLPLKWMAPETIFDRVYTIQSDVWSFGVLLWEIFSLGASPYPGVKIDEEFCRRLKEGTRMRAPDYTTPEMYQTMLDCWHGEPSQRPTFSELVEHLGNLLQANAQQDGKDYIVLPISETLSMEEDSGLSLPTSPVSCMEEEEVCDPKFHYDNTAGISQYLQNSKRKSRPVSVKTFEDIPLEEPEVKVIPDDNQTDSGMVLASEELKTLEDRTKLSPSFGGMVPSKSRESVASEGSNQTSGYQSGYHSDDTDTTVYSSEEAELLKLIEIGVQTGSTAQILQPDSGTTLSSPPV

Work on `N#Cc1ccc(C(=O)CSc2nccc(Nc3ccc(N4CCOCC4)cc3)n2)cc1` yielded a pIC50 [1] of 5.96 and a pIC50 [2] of 4.16.
Compound `CCOC(=O)c1ccc(Nc2ccnc(SCC(=O)c3ccc(C(F)(F)F)cc3)n2)cc1` has a pIC50 [3] of 4.49, an inhibition at 10 µM [4] of 76% and a pIC50 [1] of 5.71. The pIC50 [2] was 4.71.
For `CC(=O)c1cccc(Nc2ccnc(SCC(=O)c3ccc(Cl)cc3)n2)c1`, the pIC50 [3] was 4.48, the pIC50 [1] was 6.32 and the pIC50 [2] was 4.27.
In the case of `O=C(O)c1ccc(Nc2ccnc(SCC(=O)c3ccc(C(F)(F)F)cc3)n2)cc1`, the inhibition of growth at 10 µM [5] was 24%, the inhibition of growth at 10 µM [6] was 39% and the inhibition of growth at 10 µM [7] was 12%. It also gave an inhibition of growth at 10 µM [8] of 10%, an inhibition of growth at 10 µM [9] of 13% and an inhibition of growth at 10 µM [10] of 30%. The inhibition of growth at 10 µM [11] was 28%, the inhibition of growth at 10 µM [12] was 10% and the inhibition of growth at 10 µM [13] was 16%. The inhibition of growth at 10 µM [14] was 13%, the inhibition of growth at 10 µM [15] was 19% and the inhibition of growth at 10 µM [16] was 12%. For the same compound, the inhibition of growth at 10 µM [17] was 32%, the pIC50 [1] was under 5.00 and the pIC50 [2] was 4.17. It also gave an inhibition of growth at 10 µM [18] of 15% and an inhibition of growth at 10 µM [19] of 10%.
In the case of `N#Cc1ccc(C(=O)CSc2nccc(Nc3ccc(C(=O)O)cc3)n2)cc1`, the inhibition at 10 µM [4] was 77%, the pIC50 [20] was 5.77 and the pIC50 [1] was 6.92. It also gave a pIC50 [2] of 4.76.
Compound `CC(=O)c1ccc(Nc2ccnc(SCC(=O)c3ccc(Br)cc3)n2)cc1` has an inhibition of growth at 10 µM [5] of 12%, an inhibition of growth at 10 µM [21] of 25% and an inhibition of growth at 10 µM [6] of 19%. It also gave an inhibition of growth at 10 µM [7] of 23%, an inhibition of growth at 10 µM [8] of 10% and an inhibition of growth at 10 µM [22] of 39%. For the same compound, the inhibition of growth at 10 µM [9] was 12%, the inhibition of growth at 10 µM [23] was 30% and the inhibition of growth at 10 µM [24] was 16%. For the same compound, the inhibition of growth at 10 µM [25] was 14%, the inhibition of growth at 10 µM [11] was 13% and the inhibition of growth at 10 µM [26] was 30%. The inhibition of growth at 10 µM [27] was 17%, the inhibition at 10 µM [4] was 76% and the inhibition of growth at 10 µM [14] was 25%. The inhibition of growth at 10 µM [28] was 21%, the inhibition of growth at 10 µM [29] was 31% and the inhibition of growth at 10 µM [15] was 24%. The inhibition of growth at 10 µM [16] was 25%, the inhibition of growth at 10 µM [30] was 44% and the inhibition of growth at 10 µM [31] was 10%. It also gave an inhibition of growth at 10 µM [32] of 14%, an inhibition of growth at 10 µM [17] of 38% and a pIC50 [1] of 6.02. It also gave an inhibition of growth at 10 µM [33] of 19%, an inhibition of growth at 10 µM [34] of 18% and a pIC50 [2] of 4.76. It also gave an inhibition of growth at 10 µM [18] of 29%, an inhibition of growth at 10 µM [35] of 18% and an inhibition of growth at 10 µM [36] of 35%. For the same compound, the inhibition of growth at 10 µM [37] was 10%.
In the case of `CCOC(=O)c1ccc(Nc2ccnc(SCC(=O)c3ccc(OC)cc3)n2)cc1`, the pIC50 [3] was 4.36, the inhibition at 10 µM [4] was 12% and the pIC50 [20] was 6.39. For the same compound, the pIC50 [1] was 6.72 and the pIC50 [2] was 4.49.
`O=C(O)c1ccc(Nc2ccnc(SCC(=O)c3ccc(Cl)cc3)n2)cc1` gave an inhibition at 10 µM [4] of 35%, a pIC50 [20] of 6.43 and a pIC50 [1] of 6.77. For the same compound, the pIC50 [2] was 4.43.
Compound `CNC(=O)c1cc(Oc2ccc(NC(=O)Nc3ccc(Cl)c(C(F)(F)F)c3)cc2)ccn1` [SORAFENIB] has a pIC50 [3] of 5.80, an inhibition at 10 µM [4] of 90% and a pIC50 [2] of 5.36.
